Measurements taken from patent US8415469B2, “Compounds and methods for kinase modulation, and indications therefor” (Plexxikon Inc., priority 2005, dated 2013).

How the values were obtained:
Format in all cases: biochemical
Stk6 = biological target: T1, Stk6 (Homo sapiens, UniProt O14965); experiment: Z'-Lyte FRET kinase assay (Invitrogen), Stk6; settings: read-out: IC50, activity toward kinase Stk6
T1 construct: purchased Invitrogen (Carlsbad, Calif.), screening service
T1 sequence (O14965 1-403): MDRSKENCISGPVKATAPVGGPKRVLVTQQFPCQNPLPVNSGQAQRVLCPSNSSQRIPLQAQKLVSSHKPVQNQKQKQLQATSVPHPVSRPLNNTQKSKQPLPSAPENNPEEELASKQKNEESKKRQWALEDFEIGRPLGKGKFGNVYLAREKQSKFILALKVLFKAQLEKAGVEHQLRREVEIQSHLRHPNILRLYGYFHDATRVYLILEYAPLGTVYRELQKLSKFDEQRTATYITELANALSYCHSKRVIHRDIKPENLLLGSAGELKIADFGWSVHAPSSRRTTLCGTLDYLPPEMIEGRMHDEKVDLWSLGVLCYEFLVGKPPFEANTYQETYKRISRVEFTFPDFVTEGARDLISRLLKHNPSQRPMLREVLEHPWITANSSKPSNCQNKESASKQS

Fms = biological target: T2, Fms (Homo sapiens, UniProt P07333); experiment: AlphaScreen kinase assay, Fms; settings: read-out: IC50, activity toward kinase Fms
T2 construct: purchased Upstate Biotechnology

Csk = Csk (Homo sapiens, UniProt P41240); experiment: AlphaScreen kinase assay, Csk; settings: read-out: IC50, activity toward kinase Csk
Source text: (§1) AlphaScreen assay was used to screen additional kinases. The assay is similarly dependent on the phosphorylation of a peptide substrate. In this assay, an antibody that recognizes phosphorylated substrate is bound to an acceptor bead. The peptide substrate is attached to biotin, which binds to a donor head that contains streptavidin. Thus phosphorylated substrate is bound by antibody and streptavidin, bringing the donor and acceptor heads into close proximity when kinase is not inhibited. The donor produces singlet oxygen which results in emission from the acceptor when they are in close proximity. Conversely, when kinase is inhibited, the donor and acceptor beads are not associated and the emission from the acceptor is reduced.
(§2) AlphaScreen assays were done using compounds dissolved in DMSO to a concentration of 20 mM. The compounds were diluted accordingly to the desired final concentrations in each sample well, using 1:3 serial dilution for a total of 8 concentration points.

Fak = biological target: T3, Fak (Homo sapiens, UniProt Q05397); experiment: AlphaScreen kinase assay, Fak; settings: read-out: IC50, activity toward kinase Fak
T3 construct: P1358.pFastBacHtb FAK S411-Q686-X; His6 with pFastBacHTb leader (TEV site) (N); made in house; host or cells: Sf9 (baculovirus)

Kit = biological target: T4, Kit (Homo sapiens, UniProt P10721); experiment: AlphaScreen kinase assay, Kit; settings: read-out: IC50, activity toward kinase Kit
T4 construct: P1332.N6 BI PTP KIT M552-K948-X COD; His6 (N); made in house; host or cells: E. coli (PTP1B co-expressed)

B-Raf V600E = biological target: T5, B-Raf V600E (Homo sapiens, UniProt P15056, V600E); experiment: AlphaScreen kinase assay, B-Raf V600E; settings: read-out: IC50, activity toward kinase B-Raf V600E
T5 construct: P4254. pFastBacBD-CDC37 BRAF D437-K722-X, V600E; His6 with pFastBac HT leader (TEV site) (N); made in house; host or cells: Sf9 (baculovirus; chaperone CDC37 co-expressed)

B-Raf = biological target: T6, B-Raf (Homo sapiens, UniProt P15056); experiment: AlphaScreen kinase assay, B-Raf; settings: read-out: IC50, activity toward kinase B-Raf
T6 construct: purchased Upstate Biotechnology

Src = biological target: T7, Src (Homo sapiens, UniProt P12931); experiment: AlphaScreen kinase assay, Src; settings: read-out: IC50, activity toward kinase Src
T7 construct: P1144. pET-N6 BI-PTP SRC V86-L536-X; made in house

Brk = Brk (Homo sapiens, UniProt Q13882); experiment: AlphaScreen kinase assay, Brk; settings: read-out: IC50, activity toward kinase Brk
Source text: as §1, §2

Frk = Frk (Homo sapiens, UniProt P42685); experiment: AlphaScreen kinase assay, Frk; settings: read-out: IC50, activity toward kinase Frk
Source text: as §1, §2

c-Raf-1 = biological target: T8, c-Raf-1 (Homo sapiens, UniProt P04049); experiment: AlphaScreen kinase assay, c-Raf-1; settings: read-out: IC50, activity toward kinase c-Raf-1
T8 construct: purchased Upstate Biotechnology

FGFR1 = biological target: T9, FGFR1 (Homo sapiens, UniProt P11362, C488A/C584S); experiment: AlphaScreen kinase assay, FGFR1; settings: read-out: IC50, activity toward kinase FGFR
T9 construct: P1351.pET N6 BI-PTP FGFR A458-E765-X C488A, C584S; made in house; host or cells: E. coli (PTP1B co-expressed)

TEC = biological target: T10, TEC (Homo sapiens, UniProt P42680); experiment: AlphaScreen kinase assay, TEC; settings: read-out: IC50, activity toward kinase TEC
T10 sequence (P42680 1-631): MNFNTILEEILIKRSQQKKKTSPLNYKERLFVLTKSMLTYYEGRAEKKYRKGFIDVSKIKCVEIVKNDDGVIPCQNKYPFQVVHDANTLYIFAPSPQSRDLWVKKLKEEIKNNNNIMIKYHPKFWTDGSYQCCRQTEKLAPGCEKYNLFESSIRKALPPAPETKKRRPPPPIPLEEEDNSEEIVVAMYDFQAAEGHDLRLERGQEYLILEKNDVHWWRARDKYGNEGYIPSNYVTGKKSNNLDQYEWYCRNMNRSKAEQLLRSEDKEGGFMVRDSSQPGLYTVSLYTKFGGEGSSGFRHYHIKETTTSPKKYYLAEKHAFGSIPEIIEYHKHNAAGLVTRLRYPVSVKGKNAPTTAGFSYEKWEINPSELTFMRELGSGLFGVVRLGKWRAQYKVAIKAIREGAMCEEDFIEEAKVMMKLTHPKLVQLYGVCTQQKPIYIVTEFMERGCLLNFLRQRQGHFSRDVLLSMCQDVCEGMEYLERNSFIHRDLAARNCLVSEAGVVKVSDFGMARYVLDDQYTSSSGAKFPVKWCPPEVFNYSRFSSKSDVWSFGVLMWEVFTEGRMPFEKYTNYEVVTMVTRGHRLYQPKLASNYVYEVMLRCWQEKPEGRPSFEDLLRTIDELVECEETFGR
Source text: as §1, §2

Btk = biological target: T11, Btk (Homo sapiens, UniProt Q06187); experiment: Z'-Lyte FRET kinase assay (Invitrogen), Btk; settings: read-out: IC50, activity toward kinase Btk
T11 construct: purchased Invitrogen (assay run by Invitrogen)

Flt1 = biological target: T12, Flt1 (Homo sapiens, UniProt P17948); experiment: AlphaScreen kinase assay, Flt1; settings: read-out: IC50, activity toward kinase Flt1
T12 construct: P1826.pETN6 BI-PTP FLT1 M799-D1165-X WT; His6 (N); made in house; host or cells: E. coli (PTP1B co-expressed)
T12 sequence (P17948 with tags, fused parts or gaps): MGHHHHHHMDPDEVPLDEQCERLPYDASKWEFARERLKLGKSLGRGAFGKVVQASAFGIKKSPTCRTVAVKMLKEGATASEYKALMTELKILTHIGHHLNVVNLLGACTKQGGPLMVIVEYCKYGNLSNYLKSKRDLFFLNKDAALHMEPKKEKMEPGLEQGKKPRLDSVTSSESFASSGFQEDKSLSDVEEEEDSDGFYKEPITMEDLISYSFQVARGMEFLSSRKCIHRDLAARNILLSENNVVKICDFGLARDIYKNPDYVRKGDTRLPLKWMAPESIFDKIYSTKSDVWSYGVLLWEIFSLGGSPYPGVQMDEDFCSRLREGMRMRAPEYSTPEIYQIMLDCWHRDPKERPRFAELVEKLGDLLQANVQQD

MAP4K4 = MAP4K4 (Homo sapiens, UniProt O95819); experiment: AlphaScreen kinase assay, MAP4K4; settings: read-out: IC50, activity toward kinase MAP4K4
Plk1 = Plk1 (Homo sapiens, UniProt P53350); experiment: AlphaScreen kinase assay, Plk1; settings: read-out: IC50, activity toward kinase Plk1
How it was run: (§3)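 Bead-proximity format: phosphopeptide links anti-phospho antibody acceptor beads to streptavidin donor beads via biotin tag. Compounds were serially diluted 1:3 (8 points) from 20 mM stocks in DMSO.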

Jnk3 = biological target: T13, Jnk3 (Homo sapiens, UniProt P53779); experiment: AlphaScreen kinase assay, Jnk3; settings: read-out: IC50, activity toward kinase Jnk3
T13 construct: purchased Upstate Biotechnology

Gsk3β = Gsk3β (Homo sapiens, UniProt P49841); experiment: AlphaScreen kinase assay, Gsk3β; settings: read-out: IC50, activity toward kinase Gsk3β
How it was run: as §3

Jnk1 = biological target: T14, Jnk1 (Homo sapiens, UniProt P45983); experiment: AlphaScreen kinase assay, Jnk1; settings: read-out: IC50, activity toward kinase Jnk1
T14 construct: purchased Upstate Biotechnology

Kdr = biological target: T15, Kdr (Homo sapiens, UniProt P35968); experiment: Z'-Lyte FRET kinase assay (Invitrogen), Kdr; settings: read-out: IC50, activity toward kinase Kdr
T15 construct: purchased Invitrogen (assay run by Invitrogen)

Measured: IC50

T6 sequence (P15056 whole entry): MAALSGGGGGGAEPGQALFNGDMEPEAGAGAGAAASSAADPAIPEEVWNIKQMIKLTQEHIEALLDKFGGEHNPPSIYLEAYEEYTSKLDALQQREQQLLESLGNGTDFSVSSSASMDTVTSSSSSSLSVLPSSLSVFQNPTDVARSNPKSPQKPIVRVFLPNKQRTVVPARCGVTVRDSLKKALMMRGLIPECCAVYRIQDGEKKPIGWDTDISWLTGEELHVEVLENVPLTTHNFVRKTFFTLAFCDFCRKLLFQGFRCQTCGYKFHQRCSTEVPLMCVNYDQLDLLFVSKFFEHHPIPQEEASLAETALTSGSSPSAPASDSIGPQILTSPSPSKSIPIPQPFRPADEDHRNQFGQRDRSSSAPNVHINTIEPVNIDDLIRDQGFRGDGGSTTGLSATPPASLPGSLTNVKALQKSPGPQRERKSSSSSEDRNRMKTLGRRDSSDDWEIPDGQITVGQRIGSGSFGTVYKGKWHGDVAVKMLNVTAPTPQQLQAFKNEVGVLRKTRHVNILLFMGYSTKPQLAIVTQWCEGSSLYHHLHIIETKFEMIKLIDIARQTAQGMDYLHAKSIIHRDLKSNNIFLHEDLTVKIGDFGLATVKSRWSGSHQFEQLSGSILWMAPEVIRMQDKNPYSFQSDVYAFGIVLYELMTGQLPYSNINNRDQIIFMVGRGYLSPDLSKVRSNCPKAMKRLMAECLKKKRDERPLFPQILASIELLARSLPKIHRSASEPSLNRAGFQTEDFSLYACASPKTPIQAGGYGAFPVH
Csk, sequence (P41240 whole entry): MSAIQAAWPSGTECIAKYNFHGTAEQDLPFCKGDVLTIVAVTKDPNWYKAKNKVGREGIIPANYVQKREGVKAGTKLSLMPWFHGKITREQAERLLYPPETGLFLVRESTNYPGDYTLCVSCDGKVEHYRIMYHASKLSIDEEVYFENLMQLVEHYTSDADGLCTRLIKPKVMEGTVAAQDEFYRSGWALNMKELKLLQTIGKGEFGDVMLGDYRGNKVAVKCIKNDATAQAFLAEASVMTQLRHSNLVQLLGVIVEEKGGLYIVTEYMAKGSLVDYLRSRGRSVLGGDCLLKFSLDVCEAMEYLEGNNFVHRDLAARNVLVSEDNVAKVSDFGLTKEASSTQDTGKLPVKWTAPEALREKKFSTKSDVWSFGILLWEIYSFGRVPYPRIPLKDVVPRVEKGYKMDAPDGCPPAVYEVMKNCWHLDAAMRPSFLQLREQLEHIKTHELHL
T2 sequence (P07333 20-972): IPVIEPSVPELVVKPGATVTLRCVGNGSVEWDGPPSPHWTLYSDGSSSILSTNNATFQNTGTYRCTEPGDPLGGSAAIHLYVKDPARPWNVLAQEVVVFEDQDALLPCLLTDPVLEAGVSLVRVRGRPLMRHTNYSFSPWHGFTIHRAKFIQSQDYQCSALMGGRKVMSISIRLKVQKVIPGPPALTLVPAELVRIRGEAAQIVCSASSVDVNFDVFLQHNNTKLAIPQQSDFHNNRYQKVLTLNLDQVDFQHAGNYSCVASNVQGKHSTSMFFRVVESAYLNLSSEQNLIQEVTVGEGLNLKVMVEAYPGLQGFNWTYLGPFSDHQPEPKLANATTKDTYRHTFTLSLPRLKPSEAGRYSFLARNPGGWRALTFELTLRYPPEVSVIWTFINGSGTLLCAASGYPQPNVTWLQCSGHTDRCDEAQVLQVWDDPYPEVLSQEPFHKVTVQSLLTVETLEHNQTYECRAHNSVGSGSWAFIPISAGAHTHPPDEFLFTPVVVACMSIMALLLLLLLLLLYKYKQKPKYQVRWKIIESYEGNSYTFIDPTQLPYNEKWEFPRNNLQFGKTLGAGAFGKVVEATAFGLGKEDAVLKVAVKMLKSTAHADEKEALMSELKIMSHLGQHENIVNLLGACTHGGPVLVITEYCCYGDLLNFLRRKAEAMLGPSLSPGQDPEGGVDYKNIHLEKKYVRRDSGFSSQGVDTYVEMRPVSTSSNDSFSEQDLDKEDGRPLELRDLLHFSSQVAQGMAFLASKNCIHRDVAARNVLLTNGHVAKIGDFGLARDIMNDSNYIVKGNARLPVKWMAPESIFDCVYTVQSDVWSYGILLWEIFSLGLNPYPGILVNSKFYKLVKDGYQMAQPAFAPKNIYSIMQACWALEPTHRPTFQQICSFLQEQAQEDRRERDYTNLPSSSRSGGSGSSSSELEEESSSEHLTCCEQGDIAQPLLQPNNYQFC
T4 sequence (P10721 with tags, fused parts or gaps): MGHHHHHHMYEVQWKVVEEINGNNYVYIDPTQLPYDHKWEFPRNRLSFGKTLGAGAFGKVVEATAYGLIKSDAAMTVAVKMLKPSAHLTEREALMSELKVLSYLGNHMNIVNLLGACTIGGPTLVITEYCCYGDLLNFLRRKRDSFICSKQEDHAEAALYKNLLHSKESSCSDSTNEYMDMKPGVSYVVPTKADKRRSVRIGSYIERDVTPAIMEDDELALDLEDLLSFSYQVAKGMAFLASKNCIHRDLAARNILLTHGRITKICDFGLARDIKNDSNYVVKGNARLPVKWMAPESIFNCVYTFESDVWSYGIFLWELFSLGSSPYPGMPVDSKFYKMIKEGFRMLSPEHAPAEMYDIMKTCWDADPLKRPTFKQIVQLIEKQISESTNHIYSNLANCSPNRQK
T3 sequence (Q05397 411-686): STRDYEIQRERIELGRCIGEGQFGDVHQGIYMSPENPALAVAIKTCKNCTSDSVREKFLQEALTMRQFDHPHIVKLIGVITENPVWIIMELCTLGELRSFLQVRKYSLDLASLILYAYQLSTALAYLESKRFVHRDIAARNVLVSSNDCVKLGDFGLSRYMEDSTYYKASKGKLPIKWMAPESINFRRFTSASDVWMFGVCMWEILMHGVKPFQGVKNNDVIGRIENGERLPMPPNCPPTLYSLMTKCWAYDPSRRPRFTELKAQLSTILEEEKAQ
T7 sequence (P12931 with tags, fused parts or gaps): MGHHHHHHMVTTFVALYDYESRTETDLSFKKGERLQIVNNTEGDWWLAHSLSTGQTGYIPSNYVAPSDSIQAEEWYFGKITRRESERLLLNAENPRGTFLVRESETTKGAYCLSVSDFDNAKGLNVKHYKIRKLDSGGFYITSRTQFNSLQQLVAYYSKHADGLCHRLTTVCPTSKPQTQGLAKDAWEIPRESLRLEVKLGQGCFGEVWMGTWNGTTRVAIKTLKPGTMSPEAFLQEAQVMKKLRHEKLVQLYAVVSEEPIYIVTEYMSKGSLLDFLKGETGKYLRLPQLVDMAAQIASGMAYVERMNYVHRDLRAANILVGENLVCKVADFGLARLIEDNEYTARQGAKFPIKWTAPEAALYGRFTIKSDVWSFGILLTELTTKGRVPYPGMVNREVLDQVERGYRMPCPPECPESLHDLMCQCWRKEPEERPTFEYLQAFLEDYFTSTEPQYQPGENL
T8 sequence (P04049 whole entry): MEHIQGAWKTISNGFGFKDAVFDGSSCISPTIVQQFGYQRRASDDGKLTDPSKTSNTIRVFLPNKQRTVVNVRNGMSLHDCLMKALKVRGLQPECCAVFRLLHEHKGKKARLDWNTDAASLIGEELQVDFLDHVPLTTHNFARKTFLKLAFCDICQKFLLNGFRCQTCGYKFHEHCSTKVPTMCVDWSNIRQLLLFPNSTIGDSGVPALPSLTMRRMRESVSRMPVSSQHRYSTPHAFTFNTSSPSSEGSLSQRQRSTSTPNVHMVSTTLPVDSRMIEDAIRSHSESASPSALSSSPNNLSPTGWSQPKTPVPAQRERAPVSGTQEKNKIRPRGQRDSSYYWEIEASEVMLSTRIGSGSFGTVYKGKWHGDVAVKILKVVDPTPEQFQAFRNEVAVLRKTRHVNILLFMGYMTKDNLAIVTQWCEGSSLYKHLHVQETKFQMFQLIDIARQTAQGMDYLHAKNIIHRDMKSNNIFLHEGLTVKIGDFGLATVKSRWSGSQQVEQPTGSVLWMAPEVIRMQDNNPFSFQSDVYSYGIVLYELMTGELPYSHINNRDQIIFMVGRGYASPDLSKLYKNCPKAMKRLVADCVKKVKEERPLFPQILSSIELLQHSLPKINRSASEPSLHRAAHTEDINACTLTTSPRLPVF
Frk, sequence (P42685 whole entry): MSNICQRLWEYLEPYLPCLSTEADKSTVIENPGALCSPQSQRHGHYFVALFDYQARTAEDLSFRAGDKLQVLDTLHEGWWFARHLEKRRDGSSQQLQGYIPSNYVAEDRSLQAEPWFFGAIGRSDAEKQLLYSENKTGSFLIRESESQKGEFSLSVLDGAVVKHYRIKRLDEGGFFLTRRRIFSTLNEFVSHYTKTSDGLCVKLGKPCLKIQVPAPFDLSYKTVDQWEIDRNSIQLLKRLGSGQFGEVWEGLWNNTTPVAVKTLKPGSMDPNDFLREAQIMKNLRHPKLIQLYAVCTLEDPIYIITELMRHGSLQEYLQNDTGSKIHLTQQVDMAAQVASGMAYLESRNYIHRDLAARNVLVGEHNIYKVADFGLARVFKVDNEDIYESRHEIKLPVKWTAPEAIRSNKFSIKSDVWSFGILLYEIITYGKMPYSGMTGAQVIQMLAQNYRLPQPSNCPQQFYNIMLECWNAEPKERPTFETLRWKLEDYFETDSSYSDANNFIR
T5 sequence (P15056 with tags, fused parts or gaps V600E): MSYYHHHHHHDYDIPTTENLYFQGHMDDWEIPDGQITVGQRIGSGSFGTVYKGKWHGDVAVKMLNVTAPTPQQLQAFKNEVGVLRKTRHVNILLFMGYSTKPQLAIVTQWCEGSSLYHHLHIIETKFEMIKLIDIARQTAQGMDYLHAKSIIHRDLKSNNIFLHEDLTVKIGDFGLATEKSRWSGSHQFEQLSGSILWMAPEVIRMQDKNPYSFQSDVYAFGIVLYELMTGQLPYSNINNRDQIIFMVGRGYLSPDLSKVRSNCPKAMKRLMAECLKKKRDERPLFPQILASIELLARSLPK

CCCS(=O)(=O)Nc1cccc(C(=O)c2c[nH]c3ncc(Cl)cc23)c1F [Compound P-1013, propane-1-sulfonic acid [3-(5-chloro-1H-pyrrolo[2,3-b]pyridine-3-carbonyl)-2-fluoro-phenyl]-amide]
≤ 10 µM: Stk6 | Fms | Csk | Fak | Kit | B-Raf V600E | B-Raf | Src | Brk | Frk | c-Raf-1

O=C(c1c(F)ccc(NS(=O)(=O)N2CCCCC2)c1F)c1c[nH]c2ncc(Cl)cc12 [Compound P-1020, Piperidine-1-sulfonic acid [3-(5-chloro-1H-pyrrolo[2,3-b]pyridine-3-carbonyl)-2,4-difluoro-phenyl]-amide]
≤ 10 µM: FGFR1 | Csk | Fak | B-Raf V600E | B-Raf | Src | TEC | Btk | Brk | Frk | c-Raf-1

CCCS(=O)(=O)Nc1ccc(Cl)c(C(=O)c2c[nH]c3ncc(Br)cc23)c1F [Compound P-0805, Propane-1-sulfonic acid [3-(5-bromo-1H-pyrrolo[2,3-b]pyridine-3-carbonyl)-4-chloro-2-fluoro-phenyl]-amide]
≤ 10 µM: FGFR1 | Fms | Csk | B-Raf V600E | B-Raf | Src | Brk | Frk | c-Raf-1 | Flt1

O=C(c1c(F)ccc(NS(=O)(=O)c2ccccc2)c1F)c1c[nH]c2nccc(Cl)c12 [Compound P-0954, N-[3-(4-Chloro-1H-pyrrolo[2,3-b]pyridine-3-carbonyl)-2,4-difluoro-phenyl]-benzenesulfonamide]
≤ 10 µM: FGFR1 | Fms | Kit | B-Raf V600E | B-Raf | TEC | c-Raf-1 | MAP4K4 | Plk1

O=C(Nc1ccc(F)c(C(=O)c2c[nH]c3ncc(-c4cccnc4)cc23)c1F)NC1CCCC1 [Compound P-1317, 1-Cyclopentyl-3-[2,4-difluoro-3-(5-pyridin-3-yl-1H-pyrrolo[2,3-b]pyridine-3-carbonyl)-phenyl]-urea]
not listed: Stk6 | Csk | Fak | Brk | Frk | Plk1 | Kdr
≤ 10 µM: all other assays above

CCCS(=O)(=O)Nc1cccc(C(=O)c2c[nH]c3ncc(Br)cc23)c1F [Compound P-0955, Propane-1-sulfonic acid [3-(5-bromo-1H-pyrrolo[2,3-b]pyridine-3-carbonyl)-2-fluoro-phenyl]-amide]
not listed: TEC | Btk | Flt1 | MAP4K4 | Plk1 | Jnk3 | Gsk3β | Jnk1 | Kdr
≤ 10 µM: all other assays above

CCCS(=O)(=O)Nc1ccc(F)c(C(=O)c2c[nH]c3ncc(-c4ccc(Cl)cc4)cc23)c1F [Compound P-0956, Propane-1-sulfonic acid {3-[5-(4-chloro-phenyl)-1H-pyrrolo[2,3-b]pyridine-3-carbonyl]-2,4-difluoro-phenyl}-amide]
≤ 10 µM: Kdr | FGFR1 | Fms | Csk | Fak | Kit | Src | Brk | Frk | Jnk1
